Converted amounts (≈) assume the structure as drawn.
Columns and labels:
[1] = test system: HCMV recombinant mutant virus (RV145); assay: microbe, parasite or virus in culture; assay type: cell-based, human cytomegalovirus; details: for IC50: Human betaherpesvirus 5, read-out: IC50 ug/ml HCMV, HCMV
Source text: Microtiter plate assay. Ninety-six well plate cultures of human foreskin fibroblasts are infected in the presence of inhibitor compound with a HCMV recombinant mutant virus whose genome contains the prokaryotic beta-glucuronidase gene (Jefferson, R. A., S. M. Burgess, and D. Hirsh. 1986. Beta-glucuronidase from Escherichia coli as a gene fusion marker. Proc. Natl. Acad. Sci. USA 83:8447-8451) whose expression is controlled by a viral promoter. An example of such a virus is RV145 (Jones, T. R., V. P. Muzithras, and Y. Gluzman. 1991. Replacement mutagenesis of the human cytomegalovirus genome: US10 and US11 gene products are nonessential. J. Virol. 65:5860-5872). Since it is under the control of a viral promoter, beta-glucuronidase expression is an indirect indicator of growth and replication of HCMV in this assay. At 96 hours post-infection, the infected cell lysates are prepared (using 50 mM sodium phosphate [pH7.0]containing 0.1% Triton X-100 and 0.1% sarkosyl) and assayed for beta-glucuronidase activity using a substrate for the enzyme which when cleaved yields either a product which can be measured […] in a spectrophotometer or fluorescently in a microfluorimeter. Examples of such substrates are p-nitrophenyl-beta-D-glucuronide and methylumbelliferylglucuronide, respectively. The presence of an antiviral compound is indicated by the reduced expression of the HCMV genome resident beta-glucuronidase gene, compared to the absence of inhibitor. […] Data from this assay generated using varying amounts of inhibitor compound is also used to estimate the IC50 of an inhibitor compound.

HSV-1 = assay: HSV Antiviral (ELISA) Assay in Vero cells; assay type: cell-based, herpes simplex virus type 1; details: HSV-1, Vero cells; for IC50: Human alphaherpesvirus 1, read-out: IC50 (ug/ml) HSV
In short: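 Viral replication was quantified by cell-fixed ELISA for HSV glycoprotein D, using a β-galactosidase reporter and fluorogenic umbelliferyl substrate, about 24 h after HSV-1 infection (MOI 0.006) of Vero cells. Compounds, at several concentrations, were added 30 min pre-infection. IC50 was derived from fluorescence relative to the compound-free signal.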

VZV strain Ellen = assay: VZV Antiviral (ELISA) Assay in human foreskin fibroblast cells; assay type: cell-based, varicella-zoster virus
In short: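 HFF cells infected with VZV Ellen at low multiplicity (<0.1) overnight were seeded at 3.5×10^4 cells/well in DMEM with 2% FBS plus compound and incubated three days at 37° C., 5% CO2. Viral replication was read by ELISA against glycoprotein II with β-galactosidase fluorogenic readout (ex 365/em 450 nm); IC50 relative to no-compound fluorescence.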

Structure (SMILES) | IC50 ug/ml HCMV [1] | IC50 (ug/ml) HSV (HSV-1) | IC50 (ug/ml) VZV (VZV strain Ellen) | % inhibition 10 ug/ml VZV (VZV strain Ellen) | IC50 [1] | IC50 (HSV-1) | inhibition at 10 µg/mL (VZV strain Ellen; Human alphaherpesvirus 3, Fibroblast, read-out: % inhibition 10 ug/ml VZV, 10 ug/ml) | IC50 (VZV strain Ellen; Human alphaherpesvirus 3, Fibroblast, read-out: IC50 (ug/ml) VZV)
COc1cc(OC)c(NC(=S)Nc2ccc(NC(=O)c3ccccc3C)cc2)cc1Cl [Example 114] | 5 µg/mL (≈ 11 µM) | 0.3 µg/mL (≈ 0.658 µM) | >10 µg/mL | 17% | – | – | – | –
COc1cc(OC)c(NC(=S)Nc2ccc(NC(=O)c3ccccc3OC(C)=O)cc2)cc1Cl [Example 115] | 8 µg/mL (≈ 16 µM) | 4 µg/mL (≈ 8 µM) | 4 µg/mL (≈ 8 µM) | 98% | – | – | – | –
COc1cc(OC)c(NC(=S)Nc2ccc(NC(=O)c3ccc(F)cc3)cc2)cc1Cl [Example 116] | 3 µg/mL (≈ 6.52 µM) | 2 µg/mL (≈ 4.35 µM) | >10 µg/mL | 0% | – | – | – | –
COc1cc(OC)c(NC(=S)Nc2ccc(NC(=O)c3cccc(F)c3)cc2)cc1Cl [Example 117] | 3 µg/mL (≈ 6.52 µM) | 0.3 µg/mL (≈ 0.652 µM) | >10 µg/mL | 15% | – | – | – | –
COc1cc(OC)c(NC(=S)Nc2ccc(NC(=O)c3ccccc3F)cc2)cc1Cl [Example 118] | 3 µg/mL (≈ 6.52 µM) | 0.15 µg/mL (≈ 0.326 µM) | >10 µg/mL | – | – | – | – | –
COc1cc(OC)c(NC(=S)Nc2ccc(NC(=O)c3ccccc3OC)cc2)cc1Cl [Example 119] | > 10 µg/mL | 0.5 µg/mL (≈ 1.06 µM) | >10 µg/mL | 1% | – | – | – | –
COc1cccc(C(=O)Nc2ccc(NC(=S)Nc3cc(Cl)c(OC)cc3OC)cc2)c1 [Example 120] | 5 µg/mL (≈ 10.6 µM) | 0.8 µg/mL (≈ 1.7 µM) | >10 µg/mL | 25% | – | – | – | –
COc1ccc(C(=O)Nc2ccc(NC(=S)Nc3cc(Cl)c(OC)cc3OC)cc2)cc1 [Example 121] | 6 µg/mL (≈ 12.7 µM) | 0.3 µg/mL (≈ 0.636 µM) | >10 µg/mL | 0% | – | – | – | –
COc1cc(OC)c(NC(=S)Nc2ccc(NC(=O)c3ccccc3)cc2)cc1Cl [Example 122] | 4 µg/mL (≈ 9.05 µM) | 0.3 µg/mL (≈ 0.679 µM) | >10 µg/mL | 13% | – | – | – | –
COc1c(Cl)cc(NC(=S)Nc2ccc(NC(=O)c3ccc(F)cc3)cc2)cc1Cl [Example 133] | 0.6 µg/mL (≈ 1.29 µM) | 7 µg/mL (≈ 15.1 µM) | >10 µg/mL | 36% | – | – | – | –
COc1cc(OC)c(NC(=S)Nc2ccc(NC(=O)c3cccc(NC(C)=O)c3)cc2)cc1Cl [Example 134] | 4 µg/mL (≈ 8.02 µM) | > 10 µg/mL | >10 µg/mL | 50% | – | – | – | –
COc1cc(OC)c(NC(=S)Nc2ccc(NC(=O)c3cccc([N+](=O)[O-])c3)cc2)cc1Cl [Example 135] | 5 µg/mL (≈ 10.3 µM) | 1.5 µg/mL (≈ 3.08 µM) | >10 µg/mL | 0% | – | – | – | –
COc1cc(OC)c(NC(=S)Nc2ccc(NC(=O)c3ccccc3C(F)(F)F)cc2)cc1Cl [Example 138] | 8 µg/mL (≈ 15.7 µM) | 1 µg/mL (≈ 1.96 µM) | >10 µg/mL | 57% | – | – | – | –
COc1cc(OC)c(NC(=S)Nc2ccc(NC(=O)c3ccccc3O)cc2)cc1Cl [Example 139] | 6 µg/mL (≈ 13.1 µM) | 6 µg/mL (≈ 13.1 µM) | 4 µg/mL (≈ 8.73 µM) | 95% | – | – | – | –
COc1cc(OC)c(NC(=S)Nc2ccc(NC(=O)c3c(F)cccc3F)cc2)cc1Cl [Example 140] | 4 µg/mL (≈ 8.37 µM) | 0.15 µg/mL (≈ 0.314 µM) | 10 µg/mL (≈ 20.9 µM) | 65% | – | – | – | –
COc1cc(OC)c(NC(=S)Nc2ccc(NC(=O)c3ccccc3Cl)cc2)cc1Cl [Example 141] | 6 µg/mL (≈ 12.6 µM) | 0.25 µg/mL (≈ 0.525 µM) | >10 µg/mL | 40% | – | – | – | –
COc1cc(OC)c(NC(=S)Nc2ccc(NC(=O)c3ccccc3Br)cc2)cc1Cl [Example 142] | – | – | – | – | 10 µg/mL (≈ 19.2 µM) | 0.4 µg/mL (≈ 0.768 µM) | 51% | > 15 µg/mL
COc1cc(OC)c(NC(=S)Nc2ccc(NC(=O)c3ccccc3[N+](=O)[O-])cc2)cc1Cl [Example 143] | > 10 µg/mL | 1 µg/mL (≈ 2.05 µM) | >15 µg/mL | 68% | – | – | – | –
COc1cc(OC)c(NC(=S)Nc2ccc(NC(=O)c3cccc4ccccc34)cc2)cc1Cl [Example 157] | 8 µg/mL (≈ 16.3 µM) | 0.9 µg/mL (≈ 1.83 µM) | >10 µg/mL | 32% | – | – | – | –
CCOC(=O)Nc1cccc(C(=O)Nc2ccc(NC(=S)Nc3cc(Cl)c(OC)cc3OC)cc2)c1 [Example 180] | 1.5 µg/mL (≈ 2.84 µM) | 1.3 µg/mL (≈ 2.46 µM) | >10 µg/mL | 36% | – | – | – | –

Structure (SMILES) | IC50 ug/ml HCMV [1] | IC50 (ug/ml) HSV (HSV-1) | IC50 (ug/ml) VZV (VZV strain Ellen) | % inhibition 10 ug/ml VZV (VZV strain Ellen) | IC50 [1] | IC50 (HSV-1) | inhibition at 10 µg/mL (VZV strain Ellen; Human alphaherpesvirus 3, Fibroblast, read-out: % inhibition 10 ug/ml VZV, 10 ug/ml) | IC50 (VZV strain Ellen; Human alphaherpesvirus 3, Fibroblast, read-out: IC50 (ug/ml) VZV)
COc1cc(OC)c(NC(=S)Nc2ccc(NC(=O)c3ccccc3N)cc2)cc1Cl [Example 181] | >10 µg/mL | 1.5 µg/mL (≈ 3.28 µM) | >10 µg/mL | 60% | – | – | – | –
COc1cc(OC)c(NC(=S)Nc2ccc(NC(=O)c3ccccc3C(=O)O)cc2)cc1Cl [Example 184] | >50 µg/mL | >50 µg/mL | >10 µg/mL | – | – | – | – | –
COc1cc(OC)c(NC(=S)Nc2ccc(NC(=O)c3cccc(F)c3F)cc2)cc1Cl [Example 186] | >10 µg/mL | 0.2 µg/mL (≈ 0.418 µM) | >10 µg/mL | 52% | – | – | – | –
COc1cc(OC)c(NC(=S)Nc2ccc(NC(=O)c3cc(F)ccc3F)cc2)cc1Cl [Example 187] | >10 µg/mL | 0.2 µg/mL (≈ 0.418 µM) | >10 µg/mL | 53% | – | – | – | –
COc1cc(OC)c(NC(=S)Nc2ccc(NC(=O)c3ccc(F)cc3F)cc2)cc1Cl [Example 188] | >10 µg/mL | 1.2 µg/mL (≈ 2.51 µM) | >10 µg/mL | 22% | – | – | – | –
O=C(Nc1ccc(NC(=S)NCc2cccc(I)c2)cc1)c1ccccc1F [Example 661] | – | – | – | – | > 0.5 µg/mL | > 10 µg/mL | – | –
O=C(Nc1ccc(NC(=S)NCc2cc(C(F)(F)F)ccc2F)cc1)c1ccccc1F [Example 669] | – | – | – | – | > 0.5 µg/mL | > 10 µg/mL | – | –
O=C(Nc1ccc(NC(=S)NCc2ccc(F)c(F)c2)cc1)c1ccccc1F [Example 672] | – | – | – | – | > 0.5 µg/mL | > 10 µg/mL | – | –
Cc1cc(CCNC(=S)Nc2ccc(NC(=O)c3ccccc3F)cc2)ccc1N(C)C [Example 673] | >0.5 µg/mL | 7 µg/mL (≈ 15.5 µM) | – | – | – | – | – | –
O=C(Nc1ccc(NC(=S)NCc2ccc(F)c(Cl)c2)cc1)c1ccccc1F [Example 677] | >0.5 µg/mL | >10 µg/mL | – | – | – | – | – | –
O=C(Nc1ccc(NC(=S)NCCSc2cccc(Br)c2)cc1)c1ccccc1F [Example 680] | >0.5 µg/mL | >10 µg/mL | – | – | – | – | – | –
CC1CN(c2ccc(CNC(=S)Nc3ccc(NC(=O)c4ccccc4F)cc3)cc2C(F)(F)F)CCN1 (stereo not drawn) [Example 687] | >0.5 µg/mL | 1.2 µg/mL (≈ 2.2 µM) | – | – | – | – | – | –
O=C(Nc1ccc(NC(=S)NCCOc2ccc(Br)cc2)cc1)c1ccccc1F [Example 695] | >3 µg/mL | >10 µg/mL | – | – | – | – | – | –
O=C(Nc1ccc(NC(=S)NCCOc2ccc(I)cc2)cc1)c1ccccc1F [Example 696] | – | – | – | – | > 3 µg/mL | 10 µg/mL (≈ 18.7 µM) | – | –
O=C(Nc1ccc(NC(=S)NCCc2ccc(Cl)c(Cl)c2)cc1)c1ccccc1F [Example 719] | >0.5 µg/mL | >10 µg/mL | – | – | – | – | – | –
COc1ccccc1C(=O)Nc1ccc(NC(=S)NC(C)c2ccc(F)cc2)cc1 (stereo not drawn) [Example 752] | >0.5 µg/mL | >10 µg/mL | – | – | – | – | – | –
CCC(NC(=S)Nc1ccc(NC(=O)c2ccccc2F)cc1)c1ccc(F)cc1 (stereo not drawn) [Example 771] | 0.4 µg/mL (≈ 0.94 µM) | >10 µg/mL | – | – | – | – | – | –
O=C(Nc1ccc(NC(=S)NC(c2ccccc2)c2ccc(F)cc2)cc1)c1ccccc1F (stereo not drawn) [Example 772] | 0.35 µg/mL (≈ 0.739 µM) | >10 µg/mL | – | – | – | – | – | –
O=C(Nc1ccc(NC(=S)Nc2ccc(Cl)cc2)cc1)c1ccccc1F [Example 946, N-{4-[3-(4-Chloro-phenyl)-thioureido]-phenyl}-2-fluoro-benzamide] | – | – | – | – | > 10 µg/mL | > 10 µg/mL | – | –

— US6462055B2, “Alpha-methylbenzyl-containing thiourea inhibitors of herpes viruses containing a phenylenediamine group” (Wyeth, priority 1998, dated 2002)
